Data set [1] has as its system T1, Physcomitrella patens NADPH:cytochrome P450 reductase(s) (CPR or POR), in Pp_WT.
T1 construct: native reductase(s), four putative CPR genes; crude protein extract of untransformed moss with its own C4Hs; with trans-cinnamate 4-monooxygenase; trans-cinnamate 4-monooxygenase
Kind of data set: HPLC of 4-coumaric acid formed (coupled C4H reaction), Michaelis-Menten fit. Format: biochemical, Physcomitrium patens. To be noted: 400 µM cinnamic acid, pH 7.0, 25 °C, 5 min; crude extract of untransformed moss; NADPH oxidised by CPR, read-out via C4H; read-out: apparent Km.

Data set [2] has as its system T2, Physcomitrella patens NADPH:cytochrome P450 reductase(s) (CPR or POR), in Pp_AaC4H.
T2 construct: native reductase(s) of the host moss, four putative CPR genes; crude protein extract of moss expressing C-terminally 6xHis-tagged AaC4H; with trans-cinnamate 4-monooxygenase (Anthoceros agrestis)
The data set is described as above. Format: biochemical, Physcomitrium patens. To be noted: 400 µM cinnamic acid, pH 7.0, 25 °C, 5 min; crude extract; NADPH oxidised by CPR, read-out via C4H; read-out: apparent Km.

Data set [3] concerns T3, Pp_WT (PpC4Hs).
T3 construct: gene PpC4H_1; native, crude protein extract of untransformed moss; six putative C4H genes, only two named in the main text; with NADPH--cytochrome P450 reductase
Kind of data set: HPLC of 4-coumaric acid formed, Michaelis-Menten fit. The note with it: 5 mM NADPH, pH 7.0, 25 °C, 5 min; crude extract of untransformed moss; read-out: apparent Km. Type of data set: biochemical, Physcomitrium patens.

Substrate in data set [4]: O=C(O)/C=C/c1ccccc1
Kind of data set: cells, lysate or membranes. To be noted: 5 mM NADPH, pH 7.0, 25 °C, 5 min, crude extract with endogenous PpC4H background.

Turning to `NC(=O)C1=CN([C@@H]2O[C@H](COP(=O)(O)OP(=O)(O)OC[C@H]3O[C@@H](n4cnc5c(N)ncnc54)[C@H](OP(=O)(O)O)[C@@H]3O)[C@@H](O)[C@H]2O)C=CC1` [NADPH], the Km in data set [1] is 92.3 ± 10.8 µM; in data set [2] it was 88 ± 19.5 µM.

As to `O=C(O)/C=C/c1ccccc1` [t-cinnamic acid], in data set [3], the Km is 25.1 ± 8.9 µM.

B1: Pp_AaC4H (AaC4H, CYP73A260) (Anthoceros agrestis) (protein)
chain: MASGETTLGSTNTMFLDALSILEALLATIAVLWLVKQVTSSRLKPPPGPLALPILGNWLQVGDDLNHRNLSDLAKKYGDIFLLRMGQRNVVVVSSPELAKEVLLTQGVEFGSRTRNVVFDIFTGKGQDMVFTVYGEHWRRMRRIMTVPFFTSKVVQQSRVAWEDETDRVIADLKTNPKYAAASTTGVVLRQRLQLLMYNTMYRLMFDRRFESEDDPLFVQLKALNGERSRLAQSFEYNYGDFIPVLRPLLRNYLKICQDIKDRRLALFKNHFLDERKKLLDTKRSQTAASTGKCAIDHILDAQKNGKINEDNVLYIVENINVAAIETTLWSMEWGLAELVNNPDIQQKVREELDHVLGKGTPLTEPDIQAGKLSYLAAVVKETLRLHMAIPLLVPHMNLHQARLGGYDIPAESKVLVNAWYLANNPALWKDPETFRPERFLEGDKGAEPNGTDFRFLPFGVGRRSCPGIILALPLLNLVLGRLVQSFLLTCPPGVEKLDLSEKGGQFSLHIAAHSNIVVKPRPDM
In the case of B1, the Km in data set [4] came out at 17.3 ± 5.0 µM.

The Km is the substrate concentration at which the rate is half of its maximum.
